US9802960B2 (MILLENNIUM PHARMACEUTICALS, INC., priority 2014, dated 2017)

Biological target: Human VPS34 (Homo sapiens (Human), UniProt Q8NEB9)
Experiment: Human VPS34 enzyme assay (Adapta TR-FRET)
Assay type: biochemical
Details: compound concentration 1.11 μM; for inhibition at 1.11 µM: read-out: Percent Inhibition

Chain of Human VPS34 (Q8NEB9 whole entry): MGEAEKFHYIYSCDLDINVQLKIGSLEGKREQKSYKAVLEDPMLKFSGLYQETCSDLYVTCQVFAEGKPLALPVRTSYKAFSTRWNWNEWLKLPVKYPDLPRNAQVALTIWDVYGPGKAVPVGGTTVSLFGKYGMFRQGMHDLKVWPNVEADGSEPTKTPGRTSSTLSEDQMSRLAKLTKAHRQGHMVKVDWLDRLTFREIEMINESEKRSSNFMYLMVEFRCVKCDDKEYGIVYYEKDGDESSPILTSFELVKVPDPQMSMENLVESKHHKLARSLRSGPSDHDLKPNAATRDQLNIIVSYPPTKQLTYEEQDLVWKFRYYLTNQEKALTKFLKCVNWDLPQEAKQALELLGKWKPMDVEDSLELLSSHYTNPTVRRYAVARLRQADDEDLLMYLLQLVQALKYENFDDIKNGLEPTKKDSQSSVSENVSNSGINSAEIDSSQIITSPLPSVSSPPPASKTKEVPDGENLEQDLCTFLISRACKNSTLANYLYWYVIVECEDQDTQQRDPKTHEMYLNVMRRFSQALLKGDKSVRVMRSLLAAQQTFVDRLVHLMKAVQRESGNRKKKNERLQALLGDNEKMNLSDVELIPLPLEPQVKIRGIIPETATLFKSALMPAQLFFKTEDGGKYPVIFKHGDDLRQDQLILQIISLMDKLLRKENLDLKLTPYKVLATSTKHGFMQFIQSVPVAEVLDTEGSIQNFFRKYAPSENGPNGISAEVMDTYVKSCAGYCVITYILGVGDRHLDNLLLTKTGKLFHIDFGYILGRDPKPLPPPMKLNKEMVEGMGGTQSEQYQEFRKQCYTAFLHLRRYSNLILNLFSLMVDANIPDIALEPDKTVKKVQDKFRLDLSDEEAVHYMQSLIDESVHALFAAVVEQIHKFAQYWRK

| Structure (SMILES) | inhibition at 1.11 µM | Percent Inhibition |
| --- | --- | --- |
| Cc1nccc(Nc2cc(-c3cnc(C)c(NC(=O)Nc4ccccc4)c3)ccn2)n1 [Compound I-439, 1-{6-methyl-2′-[(2-methylpyrimidin-4-yl)amino]-3,4′-bipyridin-5-yl}-3-phenylurea] | 69% | – |
| Cc1nccc(Nc2cc(-c3cncc(OC4CCc5c(F)cccc54)c3)ccn2)n1 (stereo not shown) [Compound I-440, 5-[(4-fluoro-2,3-dihydro-1H-inden-1-yl)oxy]-N-(2-methylpyrimidin-4-yl)-3,4′-bipyridin-2′-amine] | 83% | – |
| COc1ncc(-c2ccnc(NC(C)=O)c2)c(C)c1S(=O)(=O)NC(C)(C)C [Compound I-442, N-[5-(tert-butylsulfamoyl)-6-methoxy-4-methyl-3,4′-bipyridin-2′-yl]acetamide] | > 99% | – |
| Cc1nccc(Nc2cc(-c3cnc(C)c(OC(C)C)c3)ccn2)n1 [Compound I-446, 5-isopropoxy-6-methyl-N-(2-methylpyrimidin-4-yl)-3,4′-bipyridin-2′-amine] | > 99% | – |
| CC(=O)Nc1cc(-c2cnc(Cl)c(N3CCCNS3(=O)=O)c2)ccn1 [Compound I-448, N-[6-chloro-5-(1,1-dioxido-1,2,6-thiadiazinan-2-yl)-3,4′-bipyridin-2′-yl]acetamide] | 87% | – |
| CNc1ncc(-c2ccnc(NC(C)=O)c2)cc1C(=O)N(C)C12CC(C1)C2 [Compound I-449, 2′-acetamido-N-(bicyclo[1.1.1]pent-1-yl)-N-methyl-6-(methylamino)-3,4′-bipyridine-5-carboxamide] | 94% | – |
| CC(=O)Nc1cc(-c2ccnc(Nc3ccnc(C)n3)c2)cn2nccc12 [Compound I-450, N-(6-{2-[(2-methylpyrimidin-4-34)amino]pyridin-4-yl}pyrazolo[1,5-a]pyridin-4-yl)acetamide] | 87% | – |
| CC(=O)Nc1cc(-c2cncc(N3CCCN(C)S3(=O)=O)c2)ccn1 [Compound I-452, N-[5-(6-methyl-1,1-dioxido-1,2,6-thiadiazinan-2-yl)-3,4′-bipyridin-2′-yl]acetamide] | > 99% | – |
| Cc1nccc(Nc2cc(-c3cnc(Cl)c(C(=O)N4CCC4)c3C)ccn2)n1 [Compound I-457, azetidin-1-yl{6-chloro-4-methyl-2′-[(2-methylpyrimidin-4-yl)amino]-3,4′-bipyridin-5-yl}methanone] | 95% | – |
| CC(=O)Nc1cc(-c2cncc(S(=O)(=O)NC(C)(C)C)c2C)ccn1 [Compound I-462, N-(5-(N-(tert-butyl)sulfamoyl)-4-methyl-[3,4′-bipyridin]-2′-yl)acetamide] | 98% | – |
| Cc1c(-c2ccnc(Nc3ccnc(C4CC4)n3)c2)cnc(Cl)c1C(=O)N1CC(C)(C)C1 [Compound I-466, {6-chloro-2′-[(2-cyclopropylpyrimidin-4-yl)amino]-4-methyl-3,4′-bipyridin-5-yl}(3,3-dimethylazetidin-1-yl)methanone] | 92% | – |
| CC(=O)Nc1cc(-c2cnc(Cl)c(N3CCCN(C)S3(=O)=O)c2)ccn1 [Compound I-467, N-[6-chloro-5-(6-methyl-1,1-dioxido-1,2,6-thiadiazinan-2-yl)-3,4′-bipyridin-2′-yl]acetamide] | > 99% | – |
| CC(=O)Nc1cc(-c2cncc(S(=O)(=O)NC34CC5CC(CC(C5)C3)C4)c2)ccn1 [Compound I-468, N-[5-(adamantan-1-ylsulfamoyl)-3,4′-bipyridin-2′-yl]acetamide] | > 99% | – |
| Cc1nccc(Nc2cc(-c3cnc(C)c(OC4CCCC4)c3)ccn2)n1 [Compound I-471, 5-(cyclopentyloxy)-6-methyl-N-(2-methylpyrimidin-4-yl)-3,4′-bipyridin-2′-amine] | 98% | – |
| CC(=O)Nc1cc(-c2cncc(Nc3ncco3)c2)ccn1 [Compound I-472, N-[5-(1,3-oxazol-2-ylamino)-3,4′-bipyridin-2′-yl]acetamide] | 96% | – |
| CC(=O)Nc1cc(-c2cnc(Cl)c(N3CCCNS3(=O)=O)c2C)ccn1 [Compound I-473, N-[6-chloro-5-(1,1-dioxido-1,2,6-thiadiazinan-2-yl)-4-methyl-3,4′-bipyridin-2′-yl]acetamide] | 87% | – |
| CC(=O)Nc1cc(-c2cc(NS(=O)(=O)N(C)C)c3ccnn3c2)ccn1 [Compound I-476, N-(4-{4-[(dimethylsulfamoyl)amino]pyrazolo[1,5-a]pyridin-6-yl}pyridin-2-yl)acetamide] | 87% | – |
| CC(=O)Nc1cc(-c2cnc(Cl)c(NS(=O)(=O)N3CC4CCC3C4)c2C)ccn1 (stereo not shown) [Compound I-477, N-{5-[(2-azabicyclo[2.2.1]hept-2-ylsulfonyl)amino]-6-chloro-4-methyl-3,4′-bipyridin-2′-yl}acetamide] | 93% | – |
| CCOc1cc(-c2ccnc(Nc3ccnc(C)n3)c2)cnc1C [Compound I-479, 5-ethoxy-6-methyl-N-(2-methylpyrimidin-4-yl)-3,4′-bipyridin-2′-amine] | 98% | – |
| Cc1nccc(Nc2cc(-c3cc(N)c4ccnn4c3)ccn2)n1 [Compound I-480, 6-{2-[(2-methylpyrimidin-4-yl)amino]pyridin-4-yl}pyrazolo[1,5-a]pyridin-4-amine] | 99% | – |
| CC(=O)Nc1cc(-c2cncc(S(=O)(=O)N3CCN(C)CC3)c2)ccn1 [Compound I-481, N-{5-[(4-methylpiperazin-1-yl)sulfonyl]-3,4′-bipyridin-2′-yl}acetamide] | > 99% | – |

Other lines, results leading:

| inhibition at 1.11 µM | Percent Inhibition | Structure (SMILES) |
| --- | --- | --- |
| > 99% | – | Cc1ncc(-c2ccnc(NC(=O)C3CC3(F)F)c2)cc1NS(=O)(=O)c1ccc(Cl)cc1F (stereo not shown) [Compound I-441, N-(5-{[(4-chloro-2-fluorophenyl)sulfonyl]amino}-6-methyl-3,4′-bipyridin-2′-yl)-2,2-difluorocyclopropanecarboxamide] |
| > 99% | – | CC(=O)Nc1cc(-c2cncc(S(=O)(=O)NC(C)(C)C)c2)ccn1 [Compound I-443, N-[5-(tert-butylsulfamoyl)-3,4′-bipyridin-2′-yl]acetamide] |
| > 99% | – | CC(=O)Nc1cc(-c2cnc(Cl)c(NS(=O)(=O)c3ccc(Br)cc3F)c2C)ccn1 [Compound I-444, N-(5-{[(4-bromo-2-fluorophenyl)sulfonyl]amino}-6-chloro-4-methyl-3,4′-bipyridin-2′-yl)acetamide] |
| – | >99% | CC(=O)Nc1cc(-c2cnc(C)c(NS(=O)(=O)N3CC4CCC3C4)c2)ccn1 (stereo not shown) [Compound I-445, N-{5-[(2-azabicyclo[2.2.1]hept-2-ylsulfonyl)amino]-6-methyl-3,4′-bipyridin-2′-yl}acetamide] |
| 98% | – | CC(=O)Nc1cc(-c2cnc(C)c(NS(=O)(=O)N3CCOCC3)c2)ccn1 [Compound I-447, N-{6-methyl-5-[(morpholin-4-ylsulfonyl)amino]-3,4′-bipyridin-2′-yl}acetamide] |
| > 99% | – | Cc1nccc(Nc2cc(-c3c[n+]([O-])c(Cl)c(NS(=O)(=O)c4ccc(F)cc4F)c3C)ccn2)n1 [Compound I-454, N-(2-chloro-4-methyl-5-{2-[(2-methylpyrimidin-4-yl)amino]pyridin-4-yl}-1-oxidopyridin-3-yl)-2,4-difluorobenzenesulfonamide] |
| > 99% | – | CNS(=O)(=O)Nc1cc(-c2ccnc(NC(C)=O)c2)cnc1C [Compound I-455, N-{6-methyl-5-[(methylsulfamoyl)amino]-3,4′-bipyridin-2′-yl}acetamide] |
| > 99% | – | CCOC(=O)Nc1cc(-c2cnc(C)c(NS(=O)(=O)c3ccc(Cl)cc3F)c2)ccn1 [Compound I-456, ethyl (5-{[(4-chloro-2-fluorophenyl)sulfonyl]amino}-6-methyl-3,4′-bipyridin-2′-yl)carbamate] |
| > 99% | – | CC(=O)Nc1cc(-c2cncc(N(C)S(=O)(=O)N(C)C)c2)ccn1 [Compound I-458, N-{5-[(dimethylsulfamoyl)(methyl)amino]-3,4′-bipyridin-2′-yl}acetamide] |
| 96% | – | CC(=O)Nc1cc(-c2cncc(S(=O)(=O)Nc3ccccc3)c2)ccn1 [Compound I-459, N-[5-(phenylsulfamoyl)-3,4′-bipyridin-2′-yl]acetamide] |
| 60% | – | CC(=O)Nc1cc(-c2cnc(C)c(N3CCCNC3=O)c2)ccn1 [Compound I-460, N-[6-methyl-5-(2-oxotetrahydropyrimidin-1 (2H)-yl)-3,4′-bipyridin-2′-yl]acetamide] |
| > 99% | – | CC(=O)Nc1cc(-c2cnc(C)c(NS(=O)(=O)c3c(Cl)cccc3Cl)c2)ccn1 [Compound I-463, N-(5-{[(2,6-dichlorophenyl)sulfonyl]amino}-6-methyl-3,4′-bipyridin-2′-yl)acetamide] |
| > 99% | – | CC(=O)Nc1cc(-c2cncc(S(=O)(=O)Nc3ccc(F)cc3F)c2)ccn1 [Compound I-464, N-{5-[(2,4-difluorophenyl)sulfamoyl]-3,4′-bipyridin-2′-yl}acetamide] |
| 97% | – | CC(=O)Nc1cc(-c2cnc(C)c(NS(=O)(=O)c3cc(Cl)sc3Cl)c2)ccn1 [Compound I-465, N-(5-{[(2,5-dichloro-3-thienyl)sulfonyl]amino}-6-methyl-3,4′-bipyridin-2′-yl)acetamide] |
| > 99% | – | CCc1c(-c2ccnc(NC(C)=O)c2)cnc(Cl)c1NS(=O)(=O)c1ccc(F)cc1F [Compound I-469, N-(6-chloro-5-{[(2,4-difluorophenyl)sulfonyl]amino}-4-ethyl-3,4′-bipyridin-2′-yl)acetamide] |
| > 99% | – | COc1ncc(-c2ccnc(NC(C)=O)c2)cc1S(=O)(=O)NC12CC(C1)C2 [Compound I-470, N-[5-(bicyclo[1.1.1]pent-1-ylsulfamoyl)-6-methoxy-3,4′-bipyridin-2′-yl]acetamide] |
| 89% | – | CC(=O)Nc1cc(-c2cncc(S(=O)(=O)N3CCC3)c2)ccn1 [Compound I-474, N-[5-(azetidin-1-ylsulfonyl)-3,4′-bipyridin-2′-yl]acetamide] |
| > 99% | – | Cc1nccc(Nc2cc(-c3cnc(C)c(Oc4ccccc4)c3)ccn2)n1 [Compound I-475, 6-methyl-N-(2-methylpyrimidin-4-yl)-5-phenoxy-3,4′-bipyridin-2′-amine] |
| 84% | – | CC(=O)Nc1cc(-c2cnc(C)c(OS(=O)(=O)c3ccc(F)cc3F)c2)ccn1 [Compound I-478, 2′-acetamido-6-methyl-3,4′-bipyridin-5-yl 2,4-difluorobenzenesulfonate] |
